Data: US20060211726A1, “Ascomycin derivatives for combination treatment with tazorotene” (priority 2005, published 2006)

Test system: psoriasis
Experiment: Topical treatment of a person suffering from psoriasis
Format: in vivo
Settings: 0.1% Protopic ointment twice a day plus 0.1% tazarotene (Tazorac) once a day in the same person; compared with 0.1% tazarotene alone once a day or 0.1% tacrilomus alone twice a day
Method: A composition according to one of examples 1-3 is administered topically once a day to person suffering from psoriasis.
Tacrilomus is administered twice a day as 0.1% Protopic® ointment to a person suffering from psoriasis. The same person receives 0.1% tazarotene as Tazorac® ointment once a day.

**Q.** How did the “Improvement of symptoms (efficacy)” value turn out when `C=CC[C@@H]1/C=C(\C)C[C@H](C)C[C@H](OC)[C@H]2O[C@@](O)(C(=O)C(=O)N3CCCC[C@H]3C(=O)O[C@H](/C(C)=C/[C@@H]3CC[C@@H](O)[C@H](OC)C3)[C@H](C)[C@@H](O)CC1=O)[C@H](C)C[C@@H]2OC` [Tacrilomus, tacrolimus] was run?
**A.** greater efficacy

**Q.** What about the side effects of the same molecule?
**A.** fewer side effects
